Test results taken from patent publication EP4043466B1, “PRC2 INHIBITORS” (Mirati Therapeutics, Inc., priority 2018, dated 2019).

Key:
[1] = target: purified human, His-tagged PRC2 complex (Homo sapiens, UniProt O75530+Q15910); test: Hot Spot HMT assay: inhibition of PRC2 enzymatic activity (transfer of tritiated methyl from SAM to core histone, filter binding); format: biochemical; conditions: Inhibition of PRC2-mediated enzymatic activity; 10 nM PRC2 complex, 0.05 mg/ml core histone H3, 1 uM 3H-SAM, 1 hr at 30°C
Method in brief: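 Serial compound dilutions starting at 1.0 µM were pre-incubated 20 min at 30°C with 10 nM complex (His-EZH2, Flag-EED, His-SUZ12, His-AEBP2, His-RbAp48) and 0.05 mg/ml core H3. Reaction ran 1 hr at 30°C after adding 1 uM [3H]-SAM; scintillation counting followed filtration.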

[2] = system: PRC2-mediated histone H3 methylation; test: Tri-Methyl Histone H3 (Lys 27) Sandwich ELISA in Pfeiffer cells: inhibition of PRC2-mediated histone H3 methylation; format: cell-based, human; conditions: Inhibition of EZH2-mediated histone H3 trimethylation, Pfeiffer cells (EZH2 A677G), 96 hours incubation
Method in brief: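 Pfeiffer DLBCL cells (EZH2 A677G mutant) treated with 3-fold serial dilutions, 1µM to 0.15 nM final, for 96 hours at 37°C. Acid (0.4M HCl) histone extracts, neutralized, assayed by H3K27me3 sandwich ELISA with HRP/TMB read at 450 nm.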

[3] = system: Karpas 422 cells; test: Karpas 422 cell viability, CTG (Cell Titre Glo) assay; format: cell-based, human; conditions: Inhibition of proliferation of Karpas 422 cells (EZH2 Y641N), viability measured Day 4, Day 7 or Day 11, time point of the tabulated values not stated
Method in brief: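 CellTiter-Glo viability IC50s taken at Day 4, Day 7 and Day 11 of continuous compound exposure (3-fold series, 10µM top, 1.5nM lowest) in RPMI/20% FBS at 37 °C. Y641N-mutant EZH2 lymphoma line seeded at 1000 cells per well; medium and compound replaced on Day 7 for Day 11 read.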

purified human, His-tagged PRC2 complex, sequence (Q15910 whole entry): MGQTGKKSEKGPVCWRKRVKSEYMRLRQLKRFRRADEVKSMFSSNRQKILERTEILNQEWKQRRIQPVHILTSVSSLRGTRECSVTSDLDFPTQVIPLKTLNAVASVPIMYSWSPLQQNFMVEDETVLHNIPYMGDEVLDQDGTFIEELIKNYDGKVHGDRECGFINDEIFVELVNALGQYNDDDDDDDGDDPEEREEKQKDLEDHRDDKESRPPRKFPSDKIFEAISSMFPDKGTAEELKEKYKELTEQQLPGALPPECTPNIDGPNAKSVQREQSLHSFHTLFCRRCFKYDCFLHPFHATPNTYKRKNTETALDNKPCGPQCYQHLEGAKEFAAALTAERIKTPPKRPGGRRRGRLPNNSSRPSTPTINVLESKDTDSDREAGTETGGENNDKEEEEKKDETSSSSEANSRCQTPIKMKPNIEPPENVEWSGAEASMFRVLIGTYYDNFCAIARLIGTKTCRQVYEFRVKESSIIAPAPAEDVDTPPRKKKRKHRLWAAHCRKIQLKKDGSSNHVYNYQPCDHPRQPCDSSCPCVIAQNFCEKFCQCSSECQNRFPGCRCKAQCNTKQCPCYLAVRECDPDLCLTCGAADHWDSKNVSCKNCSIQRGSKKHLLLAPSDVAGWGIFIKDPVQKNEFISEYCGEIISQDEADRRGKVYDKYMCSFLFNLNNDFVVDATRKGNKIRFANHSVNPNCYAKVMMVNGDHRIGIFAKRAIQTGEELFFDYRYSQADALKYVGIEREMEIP
purified human, His-tagged PRC2 complex, sequence (O75530 whole entry): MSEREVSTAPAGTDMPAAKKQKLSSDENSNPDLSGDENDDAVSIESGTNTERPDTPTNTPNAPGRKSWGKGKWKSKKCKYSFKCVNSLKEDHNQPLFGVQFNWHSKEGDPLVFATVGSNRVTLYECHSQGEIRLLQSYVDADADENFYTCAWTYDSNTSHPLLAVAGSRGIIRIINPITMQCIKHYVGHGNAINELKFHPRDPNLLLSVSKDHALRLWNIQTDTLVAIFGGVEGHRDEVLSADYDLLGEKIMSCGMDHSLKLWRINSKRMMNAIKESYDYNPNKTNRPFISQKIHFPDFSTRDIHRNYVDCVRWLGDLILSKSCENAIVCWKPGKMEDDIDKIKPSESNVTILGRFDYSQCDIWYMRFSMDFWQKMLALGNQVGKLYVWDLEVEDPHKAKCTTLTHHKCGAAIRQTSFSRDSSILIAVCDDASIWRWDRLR
purified human, His-tagged PRC2 complex, sequence (Q15022 whole entry partner): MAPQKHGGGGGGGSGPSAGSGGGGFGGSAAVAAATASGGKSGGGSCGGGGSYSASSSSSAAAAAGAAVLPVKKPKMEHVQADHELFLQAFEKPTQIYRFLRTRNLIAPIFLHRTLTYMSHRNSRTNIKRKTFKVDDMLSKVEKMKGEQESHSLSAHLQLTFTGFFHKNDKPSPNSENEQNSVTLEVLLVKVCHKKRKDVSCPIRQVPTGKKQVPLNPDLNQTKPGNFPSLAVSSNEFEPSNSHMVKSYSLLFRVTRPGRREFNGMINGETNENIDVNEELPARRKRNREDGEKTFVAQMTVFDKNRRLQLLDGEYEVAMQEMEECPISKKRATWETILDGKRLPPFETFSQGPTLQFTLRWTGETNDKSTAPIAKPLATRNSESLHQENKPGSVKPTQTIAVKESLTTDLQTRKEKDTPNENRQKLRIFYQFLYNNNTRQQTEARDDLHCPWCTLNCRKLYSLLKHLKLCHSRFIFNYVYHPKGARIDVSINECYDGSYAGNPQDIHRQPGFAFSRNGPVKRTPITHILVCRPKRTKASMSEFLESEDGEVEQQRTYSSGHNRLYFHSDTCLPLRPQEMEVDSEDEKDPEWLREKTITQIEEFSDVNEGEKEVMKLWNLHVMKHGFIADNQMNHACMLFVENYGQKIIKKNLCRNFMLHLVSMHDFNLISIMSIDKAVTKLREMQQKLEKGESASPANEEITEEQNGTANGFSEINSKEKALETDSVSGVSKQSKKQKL
purified human, His-tagged PRC2 complex, sequence (Q6ZN18 whole entry partner): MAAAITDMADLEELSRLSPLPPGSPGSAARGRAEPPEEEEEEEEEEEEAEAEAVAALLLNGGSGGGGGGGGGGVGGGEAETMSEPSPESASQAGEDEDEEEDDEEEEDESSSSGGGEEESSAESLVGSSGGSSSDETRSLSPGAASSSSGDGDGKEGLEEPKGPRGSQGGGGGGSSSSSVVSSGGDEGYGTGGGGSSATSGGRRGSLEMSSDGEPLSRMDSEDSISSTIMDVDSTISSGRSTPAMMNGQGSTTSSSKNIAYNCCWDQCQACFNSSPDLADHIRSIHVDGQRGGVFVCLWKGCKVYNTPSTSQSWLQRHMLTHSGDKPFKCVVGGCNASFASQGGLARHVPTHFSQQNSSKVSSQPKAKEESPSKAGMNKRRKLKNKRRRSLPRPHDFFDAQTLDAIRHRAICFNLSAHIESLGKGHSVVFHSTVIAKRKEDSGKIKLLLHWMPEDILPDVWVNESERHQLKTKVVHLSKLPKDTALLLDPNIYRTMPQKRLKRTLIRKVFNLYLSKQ
purified human, His-tagged PRC2 complex, sequence (Q09028 whole entry partner): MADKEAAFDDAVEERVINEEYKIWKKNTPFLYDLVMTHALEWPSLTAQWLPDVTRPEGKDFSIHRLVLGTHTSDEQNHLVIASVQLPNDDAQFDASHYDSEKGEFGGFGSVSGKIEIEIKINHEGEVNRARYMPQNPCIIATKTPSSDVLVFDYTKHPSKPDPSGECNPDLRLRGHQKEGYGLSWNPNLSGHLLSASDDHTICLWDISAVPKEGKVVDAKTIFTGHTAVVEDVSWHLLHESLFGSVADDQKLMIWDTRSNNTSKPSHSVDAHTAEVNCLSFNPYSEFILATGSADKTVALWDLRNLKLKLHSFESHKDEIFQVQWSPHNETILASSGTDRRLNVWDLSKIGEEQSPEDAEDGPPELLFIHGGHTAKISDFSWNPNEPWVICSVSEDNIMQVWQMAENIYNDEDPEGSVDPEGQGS

| IC50 [1] [nM] | IC50 ([2]; Homo sapiens) [nM] | IC50 ([3]; Homo sapiens) [nM] | IC50 [2] [nM] | IC50 [3] [nM] | Compound |
| --- | --- | --- | --- | --- | --- |
| < 100 | 100 to 500 | ≤ 250 |  |  | N#Cc1cn2c(NCc3c(F)ccc4c3CCO4)ncc(-c3ccncn3)c2n1 [Example 57, 5-(((5-fluoro-2,3-dihydrobenzofuran-4-yl)methyl)amino)-8-(pyrimidin-4-yl)imidazo[1,2-c]pyrimidine-2-carbonitrile] |
| 100 to 500 | > 500 | 250 to 500 |  |  | CN(C)c1ccc(-c2cnc(NCc3c(F)ccc4c3CCO4)n3cc(C#N)nc23)cn1 [Example 60, 8-(6-(dimethylamino)pyridin-3-yl)-5-(((5-fluoro-2,3-dihydrobenzofuran-4-yl)methyl)amino)imidazo[1,2-c]pyrimidine-2-carbonitrile] |
| < 100 | ≤ 100 | ≤ 250 |  |  | Cc1c(-c2cnc(NCc3c(F)ccc4c3CCO4)n3cc(C#N)nc23)cnc(CN(C)C)c1F [Example 233, 8-(6-((dimethylamino)methyl)-5-fluoro-4-methylpyridin-3-yl)-5-(((5-fluoro-2,3-dihydrobenzofuran-4-yl)methyl)amino)imidazo[1,2-c]pyrimidine-2-carbonitrile] |
| 100 to 500 | > 500 | 250 to 500 |  |  | Cc1ccc(-c2cnc(NCc3c(F)ccc4c3CCO4)n3cc(C#N)nc23)cc1 [Example 175, 5-(((5-fluoro-2,3-dihydrobenzofuran-4-yl)methyl)amino)-8-(p-tolyl)imidazo[1,2-c]pyrimidine-2-carbonitrile] |
| < 100 | 100 to 500 | ≤ 250 |  |  | [2H]C1Oc2ccc(F)c(C([2H])([2H])Nc3ncc(-c4ccc(CN(C)C)cc4C)c4nc(C#N)cn34)c2C1[2H] (stereo not drawn) [Example 223, 8-(4-((dimethylamino)methyl)-2-methylphenyl)-5-(((5-fluoro-2,3-dihydrobenzofuran-4-yl-2,3-d2)methyl-d2)amino)imidazo[1,2-c]pyrimidine-2-carbonitrile] |
| < 100 | 100 to 500 | ≤ 250 |  |  | N#Cc1cn2c(NCc3c(F)ccc4c3CCO4)ncc(-c3ccc(C(=O)N4CCOCC4)cc3)c2n1 [Example 181, 5-(((5-fluoro-2,3-dihydrobenzofuran-4-yl)methyl)amino)-8-(4-(morpholine-4-carbonyl)phenyl)imidazo[1,2-c]pyrimidine-2-carbonitrile] |
| < 100 | 100 to 500 | ≤ 250 |  |  | N#Cc1cn2c(NCc3c(F)ccc4c3CCO4)ncc(-c3ccc([C@@H]4CCCN4)cc3)c2n1 [Example 219, (S)-5-(((5-fluoro-2,3-dihydrobenzofuran-4-yl)methyl)amino)-8-(4-(pyrrolidin-2-yl)phenyl)imidazo[1,2-c]pyrimidine-2-carbonitrile] |
| < 100 | > 500 | > 500 |  |  | N#Cc1cn2c(NCc3c(F)ccc4c3CCO4)ncc(-c3ccc(C(=O)O)cc3)c2n1 [Example 183, 4-(2-cyano-5-(((5-fluoro-2,3-dihydrobenzofuran-4-yl)methyl)amino)imidazo[1,2-c]pyrimidin-8-yl)benzoic acid] |
| < 100 | > 500 | > 500 |  |  | N#Cc1cn2c(NCc3c(F)ccc4c3CCO4)ncc(-c3ccc(C(=O)O)nc3)c2n1 [Example 215, 5-(2-cyano-5-(((5-fluoro-2,3-dihydrobenzofuran-4-yl)methyl)amino)imidazo[1,2-c]pyrimidin-8-yl)picolinic acid] |
| < 100 | 100 to 500 | 250 to 500 |  |  | N#Cc1cn2c(NCc3c(F)ccc4c3CCO4)ncc(-c3cc[nH]c(=O)c3)c2n1 [Example 218, 5-(((5-fluoro-2,3-dihydrobenzofuran-4-yl)methyl)amino)-8-(2-oxo-1,2-dihydropyridin-4-yl)imidazo[1,2-c]pyrimidine-2-carbonitrile] |
| < 100 | 100 to 500 | ≤ 250 |  |  | Cc1ncc(F)cc1-c1cnc(NCc2c(F)ccc3c2CCO3)n2cc(C#N)nc12 [Example 62, 5-(((5-fluoro-2,3-dihydrobenzofuran-4-yl)methyl)amino)-8-(5-fluoro-2-methylpyridin-3-yl)imidazo[1,2-c]pyrimidine-2-carbonitrile] |
| < 100 | > 500 | 250 to 500 |  |  | COC(=O)c1ccc(-c2cnc(NCc3c(F)ccc4c3CCO4)n3cc(C#N)nc23)cn1 [Example 166, methyl 5-(2-cyano-5-(((5-fluoro-2,3-dihydrobenzofuran-4-yl)methyl)amino)imidazo[1,2-c]pyrimidin-8-yl)picolinate] |
| 100 to 500 | 100 to 500 | 250 to 500 |  |  | N#Cc1cc(-c2cnc(NCc3c(F)ccc4c3CCO4)n3cc(C#N)nc23)ccn1 [Example 188, 8-(2-cyanopyridin-4-yl)-5-(((5-fluoro-2,3-dihydrobenzofuran-4-yl)methyl)amino)imidazo[1,2-c]pyrimidine-2-carbonitrile] |
| < 100 | 100 to 500 | ≤ 250 |  |  | COC(=O)c1cc(-c2cnc(NCc3c(F)ccc4c3CCO4)n3cc(C#N)nc23)n(C)n1 [Example 169, methyl 5-(2-cyano-5-(((5-fluoro-2,3-dihydrobenzofuran-4-yl)methyl)amino)imidazo[1,2-c]pyrimidin-8-yl)-1-methyl-1H-pyrazole-3-carboxylate] |
| < 100 | ≤ 100 | ≤ 250 |  |  | CN1CCN(C(=O)c2cc(-c3cnc(NCc4c(F)ccc5c4CCO5)n4cc(C#N)nc34)n(C)n2)CC1 [Example 229, 5-(((5-fluoro-2,3-dihydrobenzofuran-4-yl)methyl)amino)-8-(1-methyl-3-(4-methylpiperazine-1-carbonyl)-1H-pyrazol-5-yl)imidazo[1,2-c]pyrimidine-2-carbonitrile] |
| 100 to 500 | ≤ 100 | ≤ 250 |  |  | CN1CCc2cc(-c3cnc(NCc4c(F)ccc5c4CCO5)n4cc(C#N)nc34)ccc2C1 [Example 159, 5-(((5-fluoro-2,3-dihydrobenzofuran-4-yl)methyl)amino)-8-(2-methyl-1,2,3,4-tetrahydroisoquinolin-6-yl)imidazo[1,2-c]pyrimidine-2-carbonitrile] |
| 100 to 500 |  |  | 100 to 500 | ≤ 250 | 5-(((5-fluoro-2,3-dihydrobenzofuran-4-yl)methyl)amino)-8-(2-methylpyridin-4-yl)imidazo[1,2-c]pyrimidine-2-carbonitrile [Example 178] |
| 100 to 500 | 100 to 500 | ≤ 250 |  |  | N#Cc1cn2c(NCc3c(F)ccc4c3CCO4)ncc(-c3cnn(CCO)c3)c2n1 [Example 182, 5-(((5-fluoro-2,3-dihydrobenzofuran-4-yl)methyl)amino)-8-(1-(2-hydroxyethyl)-1H-pyrazol-4-yl)imidazo[1,2-c]pyrimidine-2-carbonitrile] |
| > 500 | > 500 | > 500 |  |  | Cc1ccc(-c2cnc(NCc3c(F)ccc4c3CCO4)n3cc(C#N)nc23)c(C)c1 [Example 192, 8-(2,4-dimethylphenyl)-5-(((5-fluoro-2,3-dihydrobenzofuran-4-yl)methyl)amino)imidazo[1,2-c]pyrimidine-2-carbonitrile] |

| Compound | IC50 [1] [nM] | IC50 ([2]; Homo sapiens) [nM] | IC50 ([3]; Homo sapiens) [nM] | IC50 [2] [nM] | IC50 [3] [nM] |
| --- | --- | --- | --- | --- | --- |
| CCOP(=O)(OCC)c1ccc(-c2cnc(NCc3c(F)ccc4c3CCO4)n3cc(C#N)nc23)cc1 [Example 164, diethyl (4-(2-cyano-5-(((5-fluoro-2,3-dihydrobenzofuran-4-yl)methyl)amino)imidazo[1,2-c]pyrimidin-8-yl)phenyl)phosphonate] | < 100 | ≤ 100 | ≤ 250 |  |  |
